In ChEMBL document CHEMBL5584334, “Discovery of a Covalent Inhibitor of Pro-Caspase-1 Zymogen Blocking NLRP3 Inflammasome Activation and Pyroptosis” (J Med Chem, 2024):
Calls of active or inactive are those of the source. No cut-off for these calls is given here.

Key:
[1] = target: NACHT, LRR and PYD domains-containing protein 3 (Mus musculus) (UniProt Q8R4B8); assay: Inhibition of NLRP3 inflammasome activation in LPS primed Casp1 knockout mouse BMDM cells transfected with caspase-1 C285A mutant assessed as reduction in IL-1beta release at 2 uM preincubated for 30 mins followed by nigericin stimulation; assay type: cell-based
[2] = target: NACHT, LRR and PYD domains-containing protein 3 (Homo sapiens) (UniProt Q96P20); assay: Inhibition of NLRP3 inflammasome activation in LPS/nigericin stimulated human THP-1 cells assessed as reduction in IL-1beta production at 1 uM pretreated with LPS for 3 hrs followed by compound addition for 30 mins prior to nigericin stimulation for 45 mins by ELISA; assay type: cell-based; settings: time 75.0 min
THP-1 [3] = assay: Effect on pro-1L-1beta protein expression in LPS/MSU stimulated human THP-1 cells supernatant by Western blotting analysis; assay type: functional, cell-based
J774.A1 [4] = assay: Downregulation of inhibitor kappa B-alpha phosphorylation in mouse J774.A1 cells at 0.5 to 2 uM preincubated for 30 mins followed by LPS addition and measured after 2 hrs by Western blotting analysis; assay type: functional, cell-based; settings: dose 0.5-2 µM, time 2.5 hrs
J774.A1 [5] = assay: Inhibition of ASC to pro-caspase-1 interaction in LPS/nigericin stimulated mouse J774.A1 cells; assay type: cell-based
J774.A1 [6] = assay: Inhibition of pyroptosis in mouse J774.A1 cells assessed as reduction in cleaved GSDMD expression at 0.5 to 2 uM pretreated with LPS for 3 hrs followed by compound addition in presence of nigericin by Western blotting analysis; assay type: functional, cell-based; settings: dose 0.5-2 µM
Mus musculus [7] = assay: (§1) Anti-inflammatory activity in MSU/C18:0 free fatty acid induced Kunming mouse model of gouty arthritis assessed as reduction IL-1beta expression at 5 to 20 mg/kg, ip preadministered with compound for 30 mins followed by MSU/C18:0 free fatty acid injection and measured after 24 hrs by Western blotting analysis; assay type: functional, organism-based; settings: dose 5-20 mg/kg, time 24.5 hrs
THP-1 [8] = assay: Inhibition of p20 fragment of IL-1beta protein expression in LPS/ATP stimulated human THP-1 cells supernatant by Western blotting analysis; assay type: functional, cell-based
[9] = target: NACHT, LRR and PYD domains-containing protein 3 (Mus musculus) (UniProt Q8R4B8); assay: Inhibition of NLRP3 inflammasome activation in LPS/MSU stimulated mouse J774.A1 cells assessed as reduction in IL-18 production incubated for 4 hrs by ELISA; assay type: cell-based
[10] = system: Caspase-1 (Homo sapiens), P29466 [C244A]; assay: Inhibition of recombinant caspase-1 C244A mutant (unknown origin) at 100 uM relative to control
J774.A1 [11] = assay: Effect on ASC speck formation in mouse J774.A1 cells at 2 uM pretreated with LPS for 3 hrs prior to compound addition followed by nigericin stimulation; assay type: functional, cell-based
[12] = target: NACHT, LRR and PYD domains-containing protein 3 (Mus musculus) (UniProt Q8R4B8); assay: Inhibition of NLRP3 inflammasome activation in LPS/ATP stimulated mouse J774.A1 cells assessed as reduction in IL-1beta production incubated for 30 mins by ELISA; assay type: cell-based
[13] = Tmax in rat at 25 mg/kg, po; assay type: ADME, organism-based; settings: in vivo
J774.A1 [14] = assay: Cytotoxicity against mouse J774.A1 cells at 2 uM incubated for 1 to 12 hrs by CCK-8 method; assay type: toxicity, cell-based; settings: j774.a1, 2 µM, time 1-12 hrs
THP-1 [15] = assay: Effect on pro caspase-5 expression in human THP-1 cells at 2 uM pretreated with pam3CSK4 for 3 hrs followed by compound addition for 30 mins prior to cytosolic LPS stimulation for 16 hrs by ELISA; assay type: functional, cell-based; settings: time 16.5 hrs
[16] = target: NACHT, LRR and PYD domains-containing protein 3 (Mus musculus) (UniProt Q8R4B8); assay: Inhibition of NLRP3 inflammasome activation in LPS/MSU stimulated mouse J774.A1 cells assessed as reduction in IL-1beta production incubated for 4 hrs by ELISA; assay type: cell-based
J774.A1 [17] = assay: Binding affinity to pro-caspase 1 in mouse J774.A1 cells assessed as increase in protein stability incubated for 30 mins by CETSA; assay type: cell-based; settings: dose 1-100 µM
[18] = Acute toxicity in Kunming mouse assessed as change in LDH level at 100 mg/kg, ip administered for 14 days; assay type: organism-based; settings: in vivo, 336 h, time 14 day
J774.A1 [19] = assay: Inhibition of mitochondrial damage in LPS/nigericin stimulated mouse J774.A1 cells; assay type: functional, cell-based
[20] = system: Caspase-1 (Homo sapiens), P29466 [C397A]; assay: Binding affinity to Flag-tagged caspase-1 C397A mutant (unknown origin) expressed in HEK293T cells by pull-down assay; assay type: cell-based
J774.A1 [21] = assay: Downregulation of p65 phosphorylation in mouse J774.A1 cells at 0.5 to 2 uM preincubated for 30 mins followed by LPS addition and measured after 2 hrs by Western blotting analysis; assay type: functional, cell-based; settings: dose 0.5-2 µM, time 2.5 hrs
THP-1 [22] = assay: Inhibition of p20 fragment of caspase 1 protein expression in LPS/nigericin stimulated human THP-1 cells supernatant at 0.5 to 2 uM by Western blotting analysis; assay type: functional, cell-based; settings: dose 0.5-2 µM
[23] = target: NACHT, LRR and PYD domains-containing protein 3 (Mus musculus) (UniProt Q8R4B8); assay: Inhibition of NLRP3 inflammasome activation in LPS primed Casp1 knockout mouse BMDM cells transfected with caspase-1 C285A/C397A double mutant assessed as reduction in IL-1beta release at 2 uM preincubated for 30 mins followed by nigericin stimulation; assay type: cell-based
Caspase-3 (Mus musculus) = target: T1, Caspase-3 (Mus musculus) (UniProt P70677); assay: Inhibition of cisplatin induced caspase-3 activation in mouse J774.A1 cells at 2 uM preincubated for 30 mins followed by cisplatin addition and incubated overnight; assay type: cell-based
T1 sequence (whole entry): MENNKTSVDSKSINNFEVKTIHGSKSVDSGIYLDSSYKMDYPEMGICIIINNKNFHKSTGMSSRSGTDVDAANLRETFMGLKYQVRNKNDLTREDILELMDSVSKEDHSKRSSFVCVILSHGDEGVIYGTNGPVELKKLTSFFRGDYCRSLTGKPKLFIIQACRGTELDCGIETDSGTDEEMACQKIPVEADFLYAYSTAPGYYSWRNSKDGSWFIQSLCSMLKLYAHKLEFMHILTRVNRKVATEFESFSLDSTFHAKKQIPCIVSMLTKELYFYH

[24] = Tmax in rat at 10 mg/kg, iv; assay type: ADME, organism-based; settings: in vivo
Mus musculus [25] = assay: as §1, with “effect on pro-IL-1beta” for “reduction IL-1beta”; assay type: functional, organism-based; settings: dose 5-20 mg/kg, time 24.5 hrs
Caspase-1 = target: T2, Caspase-1 (Homo sapiens, UniProt P29466); assay: Inhibition of recombinant human caspase-1 expressed in Escherichia coli BL21 cells using […] as substrate incubated for 30 mins
T2 sequence (P29466 whole entry): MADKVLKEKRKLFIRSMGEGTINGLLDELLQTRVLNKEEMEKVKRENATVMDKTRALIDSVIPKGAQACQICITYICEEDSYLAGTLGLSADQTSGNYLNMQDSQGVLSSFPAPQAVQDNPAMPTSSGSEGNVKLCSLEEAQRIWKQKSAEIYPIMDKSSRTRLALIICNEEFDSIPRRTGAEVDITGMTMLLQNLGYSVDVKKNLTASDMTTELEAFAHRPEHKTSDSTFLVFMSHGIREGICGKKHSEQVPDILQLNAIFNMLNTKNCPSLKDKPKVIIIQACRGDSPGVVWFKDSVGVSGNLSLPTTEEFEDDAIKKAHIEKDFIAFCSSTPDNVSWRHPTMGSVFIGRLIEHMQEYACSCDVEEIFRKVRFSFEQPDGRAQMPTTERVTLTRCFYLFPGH

Chain of NACHT, LRR and PYD domains-containing protein 3 (Mus musculus) (Q8R4B8 whole entry, the tested form may be a part): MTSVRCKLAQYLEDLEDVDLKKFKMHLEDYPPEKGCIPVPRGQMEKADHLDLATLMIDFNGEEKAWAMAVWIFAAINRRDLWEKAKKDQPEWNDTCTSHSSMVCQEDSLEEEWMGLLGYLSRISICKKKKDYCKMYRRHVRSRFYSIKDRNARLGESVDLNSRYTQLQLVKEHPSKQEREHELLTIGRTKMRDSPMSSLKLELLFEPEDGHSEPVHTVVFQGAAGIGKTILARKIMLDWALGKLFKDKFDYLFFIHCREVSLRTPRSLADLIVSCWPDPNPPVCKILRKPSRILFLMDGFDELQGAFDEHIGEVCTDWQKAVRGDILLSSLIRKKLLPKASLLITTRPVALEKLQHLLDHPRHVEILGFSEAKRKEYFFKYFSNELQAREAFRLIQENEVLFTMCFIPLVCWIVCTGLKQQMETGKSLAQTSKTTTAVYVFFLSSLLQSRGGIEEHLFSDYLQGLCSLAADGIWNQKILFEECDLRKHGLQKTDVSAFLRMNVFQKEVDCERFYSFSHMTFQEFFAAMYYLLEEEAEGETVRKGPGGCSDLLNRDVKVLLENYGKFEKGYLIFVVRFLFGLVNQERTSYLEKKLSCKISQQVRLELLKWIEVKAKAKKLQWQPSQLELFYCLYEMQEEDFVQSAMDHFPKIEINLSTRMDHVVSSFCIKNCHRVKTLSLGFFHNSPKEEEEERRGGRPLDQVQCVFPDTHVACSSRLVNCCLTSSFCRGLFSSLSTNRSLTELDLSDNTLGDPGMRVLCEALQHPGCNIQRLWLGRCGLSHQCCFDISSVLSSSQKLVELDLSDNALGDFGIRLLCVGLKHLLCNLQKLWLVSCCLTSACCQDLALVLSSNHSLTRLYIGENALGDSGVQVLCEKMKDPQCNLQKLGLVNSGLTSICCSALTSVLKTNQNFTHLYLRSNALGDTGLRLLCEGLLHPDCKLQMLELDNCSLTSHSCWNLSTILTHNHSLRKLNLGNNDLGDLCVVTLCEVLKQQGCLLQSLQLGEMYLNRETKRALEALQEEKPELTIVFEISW
Chain of Caspase-1 (Homo sapiens), P29466 [C397A] (P29466 whole entry C397A): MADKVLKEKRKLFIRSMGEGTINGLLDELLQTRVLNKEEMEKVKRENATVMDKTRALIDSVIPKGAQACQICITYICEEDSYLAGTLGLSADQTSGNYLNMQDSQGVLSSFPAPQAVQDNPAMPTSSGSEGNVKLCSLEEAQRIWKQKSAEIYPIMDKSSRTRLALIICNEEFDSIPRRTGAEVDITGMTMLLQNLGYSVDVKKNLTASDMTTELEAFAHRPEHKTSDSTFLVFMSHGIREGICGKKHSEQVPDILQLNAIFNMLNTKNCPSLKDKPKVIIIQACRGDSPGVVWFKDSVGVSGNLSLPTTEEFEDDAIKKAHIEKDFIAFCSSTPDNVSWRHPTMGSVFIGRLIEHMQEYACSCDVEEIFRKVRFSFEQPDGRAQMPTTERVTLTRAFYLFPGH
Chain of NACHT, LRR and PYD domains-containing protein 3 (Homo sapiens) (Q96P20 whole entry, the tested form may be a part): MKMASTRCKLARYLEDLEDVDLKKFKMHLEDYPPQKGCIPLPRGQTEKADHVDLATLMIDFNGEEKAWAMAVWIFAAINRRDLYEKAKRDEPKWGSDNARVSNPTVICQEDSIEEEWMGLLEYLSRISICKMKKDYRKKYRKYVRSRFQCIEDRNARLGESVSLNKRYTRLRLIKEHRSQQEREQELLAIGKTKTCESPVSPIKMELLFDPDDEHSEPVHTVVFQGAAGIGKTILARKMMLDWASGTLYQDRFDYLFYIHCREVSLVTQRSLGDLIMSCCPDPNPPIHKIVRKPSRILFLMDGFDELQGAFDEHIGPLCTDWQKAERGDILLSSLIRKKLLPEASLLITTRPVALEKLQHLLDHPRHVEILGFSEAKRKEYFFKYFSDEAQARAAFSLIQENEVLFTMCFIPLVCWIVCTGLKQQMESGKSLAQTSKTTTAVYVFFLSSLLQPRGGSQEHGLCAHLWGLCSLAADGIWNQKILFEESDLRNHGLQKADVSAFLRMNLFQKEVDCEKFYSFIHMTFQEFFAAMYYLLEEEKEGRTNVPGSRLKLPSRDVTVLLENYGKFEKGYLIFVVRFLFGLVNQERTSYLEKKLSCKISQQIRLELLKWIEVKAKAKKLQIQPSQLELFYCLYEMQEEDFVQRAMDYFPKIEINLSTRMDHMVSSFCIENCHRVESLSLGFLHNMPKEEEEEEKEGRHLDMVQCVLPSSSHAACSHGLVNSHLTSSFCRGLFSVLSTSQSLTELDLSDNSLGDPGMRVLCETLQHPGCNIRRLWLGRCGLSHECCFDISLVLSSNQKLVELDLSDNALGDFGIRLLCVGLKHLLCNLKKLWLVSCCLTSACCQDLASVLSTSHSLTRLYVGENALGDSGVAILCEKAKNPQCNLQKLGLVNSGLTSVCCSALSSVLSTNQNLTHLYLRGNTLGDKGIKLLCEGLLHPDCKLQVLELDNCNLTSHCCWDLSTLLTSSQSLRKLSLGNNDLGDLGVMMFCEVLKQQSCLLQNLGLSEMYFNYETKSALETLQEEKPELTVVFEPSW
Chain of Caspase-1 (Homo sapiens), P29466 [C244A] (P29466 whole entry C244A): as the sequence (P29466 whole entry C397A) above, with C244A, A397C counted along it

With `COc1ccc2c(c1)[C@]1(C=C[C@H](N=C=S)C[C@H]1C(=O)OC(C)(C)C)C(=O)N2C(=O)OCc1ccccc1` as the compound, how does the inhibition [1] read?
The inhibition was “inactive”.

And the inhibition [2]?
Its inhibition is “Active”.

And the Activity (THP-1 [3])?
The Activity was “inactive”.

And the Activity (J774.A1 [4])?
The Activity was “Active”.

What about the inhibition (J774.A1 [5]) of the same compound?
Its inhibition is “Active”.

And the inhibition (J774.A1 [6])?
Its inhibition is “Active”.

What about the Activity (Mus musculus [7]) of the same compound?
Its Activity is “Active”.

What about the inhibition (THP-1 [8]) of the same compound?
The inhibition was “Active”.

What about the inhibition [9] of the same compound?
The inhibition was “Active”.

What about the inhibition [10] of the same compound?
The inhibition was “inactive”.

What about the inhibition (J774.A1 [11]) of the same compound?
Its inhibition is “Active”.

And the inhibition [12]?
The inhibition was “Active”.

And the Tmax [13]?
Its Tmax is 90 min.

And the Activity (J774.A1 [14])?
Its Activity is “Non-Toxic”.

What about the Activity (THP-1 [15]) of the same compound?
Its Activity is “inactive”.

And the inhibition [16]?
The inhibition was “Active”.

What about the Activity (J774.A1 [17]) of the same compound?
Its Activity is “Dose-Dependent Effect”.

What about the Activity [18] of the same compound?
The Activity was “Non-Toxic”.

What about the inhibition (J774.A1 [19]) of the same compound?
The inhibition was “inactive”.

What about the Activity [20] of the same compound?
Its Activity is “inactive”.

And the Activity (J774.A1 [21])?
Its Activity is “Active”.

What about the inhibition (THP-1 [22]) of the same compound?
The inhibition was “Active”.

And the inhibition [23]?
The inhibition was “inactive”.

What about the inhibition (Caspase-3 (Mus musculus)) of the same compound?
The inhibition was “inactive”.

And the Tmax [24]?
Its Tmax is 4.98 min.

And the Activity (Mus musculus [25])?
The Activity was “inactive”.

What about the IC50 (Caspase-1) of the same compound?
Its IC50 is 650 nM.
